The record followed here is ChEMBL document CHEMBL1201862, “PubChem BioAssay data set” (2004).

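Following 48 hours of exposure in 96-well plates, responses at five concentrations were used to interpolate endpoints linearly. Here, GI50 denotes the concentration required for 50% inhibition of growth.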 Activity calls are given as the source filed them. Cut-off read from the data, not from the text of the source: active = GI50 up to about 1.1 µM and inactive = higher.

Some test systems named below: HT-29; DLD-1; SK-MEL-2; IGROV-1; HCT-15; SN12C; COLO 205; NCI-H226; OVCAR-4; M14; M19-MEL; HCC 2998; U-251; SF-539; SR; OVCAR-5; EKVX; NCI/ADR-RES; MDA-MB-435.
Holding throughout (experiment): NCI tumour cell line growth inhibition, 48 h

Consider `COc1cc2c(cc1OC)[C@@H]([C@H](O)c1ccccc1)NCC2`, for which the GI50 was > 100 µM (inactive) in the assay on HT-29; > 100 µM (inactive) in the assay on DLD-1; > 100 µM (inactive) with SK-MEL-2; > 100 µM (inactive) in the assay on IGROV-1; over 100 µM in the assay on HCT-15; > 100 µM (inactive) in the assay on SN12C. The GI50 in the assay on COLO 205, in the assay on NCI-H226, in the assay with OVCAR-4, in the assay with M14, with M19-MEL and in the assay with HCC 2998 was > 100 µM (inactive) each time. For the same compound, the GI50 in the assay with U-251 was > 100 µM (inactive); in the assay on SF-539 it was > 100 µM (inactive); in the assay with SR, > 100 µM (inactive); in the assay with OVCAR-5, > 100 µM (inactive); in the assay with EKVX, > 97.7 µM (inactive).
As for `CCOc1ccc(/C(Cl)=C(\C=O)c2ccc(OC)c(OC)c2)cc1OCC`, the GI50 with HT-29 was 41.1 µM (inactive); in the assay with DLD-1 it was 68.7 µM (inactive); with SK-MEL-2, > 100 µM (inactive); in the assay on IGROV-1, > 100 µM (inactive); with HCT-15 it was 28.3 µM; with SN12C it was 44.6 µM (inactive). The GI50 is 61.5 µM (inactive) in the assay with COLO 205; 67.1 µM (inactive) in the assay on NCI-H226; 38.7 µM (inactive) in the assay with OVCAR-4; > 100 µM (inactive) with M14; 33 µM (inactive) in the assay with M19-MEL; 30 µM (inactive) in the assay on HCC 2998. For the same compound, the GI50 in the assay on U-251 was 32.9 µM (inactive); with SF-539, 48.9 µM (inactive); in the assay on SR, 20.3 µM (inactive); with OVCAR-5, > 100 µM (inactive); in the assay with EKVX, 65.2 µM (inactive).
For the compound `N#CC(c1ccccn1)c1nc2ccccc2[nH]1` (stereo not given), the GI50 was > 100 µM (inactive) in the assay on HT-29; 98.9 µM (inactive) with DLD-1; > 100 µM (inactive) in the assay on SK-MEL-2; > 100 µM (inactive) in the assay on SN12C; > 100 µM (inactive) in the assay on COLO 205; > 100 µM (inactive) in the assay with NCI-H226. Further, the GI50 is 81.1 µM (inactive) with OVCAR-4; > 100 µM (inactive) in the assay on M14; > 100 µM (inactive) in the assay on M19-MEL; > 100 µM (inactive) in the assay with HCC 2998; > 100 µM (inactive) in the assay with U-251; 38.5 µM (inactive) with SR. Further, the GI50 in the assay on OVCAR-5 and in the assay with EKVX was > 100 µM (inactive) throughout.
With `Cc1ccccc1NC(=O)/C=N/O`, the GI50 with HT-29 is > 100 µM (inactive); in the assay with DLD-1, > 100 µM (inactive); with SK-MEL-2 it was > 100 µM (inactive); in the assay with IGROV-1 it was > 100 µM (inactive); in the assay with HCT-15 it was over 100 µM; with SN12C, > 100 µM (inactive). The GI50 with COLO 205, in the assay with NCI-H226, in the assay on OVCAR-4, with M14, in the assay with M19-MEL and in the assay with HCC 2998 was > 100 µM (inactive) in each case. The GI50 in the assay on U-251 is > 100 µM (inactive); in the assay with SR, > 100 µM (inactive); in the assay on OVCAR-5 it was > 100 µM (inactive); in the assay on EKVX, 22 µM (inactive).
`COc1ccc(/C(Cl)=C(\C=O)c2ccc(OC)c(OC)c2)cc1OC`: the GI50 is 41.6 µM (inactive) in the assay on HT-29; > 92 µM (inactive) in the assay with DLD-1; 94.4 µM (inactive) with SK-MEL-2; 95.3 µM (inactive) with IGROV-1; 83 µM in the assay with HCT-15; > 100 µM (inactive) in the assay with SN12C. For the same compound, the GI50 in the assay with COLO 205 was > 100 µM (inactive); in the assay with NCI-H226, 91.6 µM (inactive); in the assay with OVCAR-4 it was 63.8 µM (inactive); with M14, > 100 µM (inactive); in the assay with M19-MEL, 99.3 µM (inactive); in the assay on HCC 2998, > 97.1 µM (inactive). Further, the GI50 with U-251 was > 100 µM (inactive); in the assay with SF-539, 94.6 µM (inactive); in the assay with SR, > 100 µM (inactive); in the assay with NCI/ADR-RES it was > 91.4 µM (inactive); in the assay with OVCAR-5, > 45.6 µM (inactive); in the assay with MDA-MB-435, > 100 µM (inactive). In the assay with EKVX, the GI50 was > 100 µM (inactive).
As for `O=C1C(Cl)C(c2ccccc2O)N1n1cnc2ccccc2c1=O` (stereo not given), the GI50 in the assay on HT-29 is 87.3 µM (inactive); with DLD-1, 67 µM (inactive); in the assay with SK-MEL-2, > 100 µM (inactive); in the assay with IGROV-1, 61.7 µM (inactive); in the assay on HCT-15 it was 2.99 µM; with SN12C it was 7.08 µM (inactive). The GI50 in the assay on COLO 205 is 30.1 µM (inactive); in the assay on NCI-H226, 62.2 µM (inactive); in the assay with OVCAR-4, 23.7 µM (inactive); in the assay with M14, 80.2 µM (inactive); in the assay on M19-MEL it was 97.3 µM (inactive); with HCC 2998 it was > 100 µM (inactive). In addition, the GI50 in the assay on U-251 is 43.3 µM (inactive); with SR, 27.4 µM (inactive); in the assay on OVCAR-5 it was > 100 µM (inactive); in the assay with EKVX it was 23.9 µM (inactive).
`COC1CCC(OS(C)(=O)=O)C(CO)O1` (stereo not given): the GI50 was > 100 µM (inactive) with HT-29; > 100 µM (inactive) in the assay on DLD-1; > 100 µM (inactive) with SK-MEL-2; > 100 µM (inactive) in the assay with IGROV-1; over 100 µM with HCT-15; > 100 µM (inactive) in the assay on SN12C. For the same compound, the GI50 in the assay with M14, in the assay on M19-MEL, in the assay on HCC 2998, with U-251, in the assay with SF-539 and in the assay with SR was > 100 µM (inactive) each time. Also, the GI50 in the assay with OVCAR-5 and in the assay on EKVX was > 100 µM (inactive) in each case.
`O=C(N/C(=C\c1ccc([N+](=O)[O-])cc1)c1nc2cc(Cl)ccc2[nH]1)c1ccccc1`: the GI50 in the assay with HT-29 is 20.3 µM (inactive); in the assay with DLD-1 it was 13.5 µM (inactive); in the assay on SK-MEL-2, 21.9 µM (inactive); with IGROV-1 it was 16.9 µM (inactive); in the assay on HCT-15 it was 13.3 µM; in the assay with SN12C, 20.7 µM (inactive). In addition, the GI50 was 15.7 µM (inactive) in the assay on OVCAR-4; 17.3 µM (inactive) with M14; 31.6 µM (inactive) with M19-MEL; 18 µM (inactive) with HCC 2998; 15.5 µM (inactive) in the assay on U-251; 19.1 µM (inactive) in the assay on SF-539. In addition, the GI50 in the assay with SR is 18 µM (inactive); in the assay with OVCAR-5, 11.3 µM (inactive); with EKVX, 29.4 µM (inactive).
For `CS/C(=N\c1ccccc1Cl)NC(=O)c1ccc(Br)cc1`, the GI50 with HT-29 is > 100 µM (inactive); with DLD-1, > 100 µM (inactive); in the assay on SK-MEL-2, 66.7 µM (inactive); in the assay on IGROV-1 it was 62.8 µM (inactive); in the assay with HCT-15, over 100 µM; with SN12C it was > 100 µM (inactive). Besides, the GI50 in the assay with COLO 205 is > 100 µM (inactive); with NCI-H226, 41 µM (inactive); with OVCAR-4, 18.2 µM (inactive); in the assay with M14, 24.6 µM (inactive); with M19-MEL, > 100 µM (inactive); in the assay with HCC 2998, > 100 µM (inactive). In addition, the GI50 was 39.5 µM (inactive) in the assay with U-251; 37.2 µM (inactive) in the assay on SF-539; 40.5 µM (inactive) in the assay on SR; > 100 µM (inactive) with OVCAR-5; > 100 µM (inactive) in the assay on EKVX.
As for `COC(=O)C(=O)C(C(=O)C(=O)Nc1ccc(C)cc1C)c1nc2ccccc2nc1O` (stereo not given), the GI50 with HT-29 is > 100 µM (inactive); in the assay on DLD-1 it was 50.7 µM (inactive); with SK-MEL-2, 54.3 µM (inactive); in the assay with IGROV-1, 32.5 µM (inactive); in the assay with HCT-15 it was 31.6 µM; in the assay with SN12C, 41.6 µM (inactive). The GI50 in the assay with COLO 205 was 79.3 µM (inactive); in the assay on NCI-H226 it was 37.4 µM (inactive); in the assay with OVCAR-4 it was > 100 µM (inactive); with M14, 54.8 µM (inactive); in the assay with M19-MEL, > 100 µM (inactive); with HCC 2998, 67.3 µM (inactive). Moreover, the GI50 in the assay on U-251 was 57.1 µM (inactive); with SF-539, 36.6 µM (inactive); in the assay on SR, 35.8 µM (inactive); with OVCAR-5, 30.9 µM (inactive); in the assay with EKVX, 17.9 µM (inactive).
On to `Cc1ccccc1NC(=O)/C(=N\NC(N)=S)C(C#N)c1ccccc1` (stereo not given), for which the GI50 with HT-29 is > 100 µM (inactive); in the assay on DLD-1, > 100 µM (inactive); with SK-MEL-2, > 100 µM (inactive); in the assay with IGROV-1, > 100 µM (inactive); in the assay with HCT-15, over 100 µM; in the assay with SN12C, > 100 µM (inactive). Moreover, the GI50 in the assay with COLO 205, with NCI-H226, in the assay with OVCAR-4, in the assay with M14, in the assay with M19-MEL and with HCC 2998 was > 100 µM (inactive) each time. Also, the GI50 in the assay with U-251, with SF-539, in the assay with SR, in the assay with OVCAR-5 and with EKVX was > 100 µM (inactive) each time.
With `CC12CCC(=O)C[C@H]1CCC(OC=O)C2Br` (stereo not given in full), the GI50 in the assay with HT-29 was > 100 µM (inactive); in the assay on DLD-1 it was > 100 µM (inactive); in the assay on SK-MEL-2, > 100 µM (inactive); in the assay with IGROV-1, > 100 µM (inactive); in the assay on HCT-15 it was over 100 µM; with SN12C, > 100 µM (inactive). Moreover, the GI50 with COLO 205, in the assay with NCI-H226, in the assay on OVCAR-4, in the assay with M14, with M19-MEL and in the assay with HCC 2998 was > 100 µM (inactive) in each case. For the same compound, the GI50 with U-251, in the assay on SF-539, in the assay on SR and in the assay on OVCAR-5 was > 100 µM (inactive) throughout.
